Here are results for four molecules from patent publication US11034650B2, “Compounds useful for treating a Mannheimia haemolytica or Histophilus somni infection” (Intervet Inc., priority 2016, dated 2021).

In brackets after ≈: the same amount, converted by molar mass. Some results are limits rather than exact numbers.

One assay deals with Mannheimia haemolytica MH 6357 (M7/2, reference strain, cattle infection strain). In words: MIC, broth-microdilution (CLSI VET01-A4), strain MH 6357. The assay is classed as cell-based. Particulars: Mannheimia haemolytica strain MH 6357, broth-microdilution; unit assumed. The essentials:
(§1)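 Growth inhibition is scored visually on a doubling dilution series. The reported MIC corresponds to the lowest concentration free of turbidity, with results assessed under CLSI VET01-S3.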
(Dilution methods test growth across graded concentrations, often in twofold steps.)
Regarding `CC(C)([C@H](NC(=O)c1ccc(C#Cc2ccc(CNCc3cccnc3)nc2)cc1)C(=O)NO)S(C)(=O)=O` [Compound 373], the MIC MH 6357 was found to be 1.6 µg/mL (≈ 2.99 µM).

As for `CC(C)([C@H](NC(=O)c1ccc(C#Cc2ccc(CNCc3ccccn3)cc2)cc1)C(=O)NO)S(C)(=O)=O` [C.269], the MIC MH 6357 came to 1.6 µg/mL (≈ 2.99 µM).

In the case of `CSC(C)(C)[C@H](NC(=O)c1ccc(C#Cc2ccc(CN3CCOCC3)cc2)cc1)C(=O)NO` [Compound 238], the MIC MH 6357 was found to be 1.6 µg/mL (≈ 3.32 µM).

`CCCNCc1ccc(C#Cc2ccc(C(=O)N[C@H](C(=O)NO)C(C)C)cc2)cc1` [Compound 206] displayed an MIC MH 6357 of 3.1 µg/mL (≈ 7.61 µM).

A further assay relates to Mannheimia haemolytica MH 6374 (ATCC 33396, reference strain). Put plainly: MIC, broth-microdilution (CLSI VET01-A4), strain MH 6374. It is filed as cell-based. Particulars: Mannheimia haemolytica strain MH 6374, broth-microdilution; unit assumed. The essentials: as §1
`CC(C)([C@H](NC(=O)c1ccc(C#Cc2ccc(CNCc3cccnc3)nc2)cc1)C(=O)NO)S(C)(=O)=O` [Compound 373] had an MIC MH 6374 of 3.1 µg/mL (≈ 5.79 µM).

In the case of `CC(C)([C@H](NC(=O)c1ccc(C#Cc2ccc(CNCc3ccccn3)cc2)cc1)C(=O)NO)S(C)(=O)=O` [C.269], the MIC MH 6374 was 0.4 µg/mL (≈ 0.748 µM).

In the case of `CSC(C)(C)[C@H](NC(=O)c1ccc(C#Cc2ccc(CN3CCOCC3)cc2)cc1)C(=O)NO` [Compound 238], the MIC MH 6374 stood at 3.1 µg/mL (≈ 6.44 µM).

Consider `CCCNCc1ccc(C#Cc2ccc(C(=O)N[C@H](C(=O)NO)C(C)C)cc2)cc1` [Compound 206], for which the MIC MH 6374 was determined as 3.1 µg/mL (≈ 7.61 µM).

A further assay deals with Mannheimia haemolytica MH 10720 (154, BRD field isolate). In words: MIC, broth-microdilution (CLSI VET01-A4), strain MH 10720. It is filed as cell-based. Particulars: Mannheimia haemolytica strain MH 10720, broth-microdilution; unit assumed. The method, boiled down: as §1
In the case of `CC(C)([C@H](NC(=O)c1ccc(C#Cc2ccc(CNCc3cccnc3)nc2)cc1)C(=O)NO)S(C)(=O)=O` [Compound 373], the MIC MH 10720 came to 0.4 µg/mL (≈ 0.747 µM).

In turn, `CC(C)([C@H](NC(=O)c1ccc(C#Cc2ccc(CNCc3ccccn3)cc2)cc1)C(=O)NO)S(C)(=O)=O` [C.269] came in with an MIC MH 10720 not above 0.1 µg/mL.

The molecule `CSC(C)(C)[C@H](NC(=O)c1ccc(C#Cc2ccc(CN3CCOCC3)cc2)cc1)C(=O)NO` [Compound 238] came in with an MIC MH 10720 of 0.8 µg/mL (≈ 1.66 µM).

Regarding `CCCNCc1ccc(C#Cc2ccc(C(=O)N[C@H](C(=O)NO)C(C)C)cc2)cc1` [Compound 206], the MIC MH 10720 turned out to be 0.8 µg/mL (≈ 1.96 µM).

The test system of a further assay is Mannheimia haemolytica MH 12587 (1071, BRD field isolate, macrolide-resistance: erm+, E+). Put plainly: MIC, broth-microdilution (CLSI VET01-A4), strain MH 12587. It is filed as cell-based. Particulars: Mannheimia haemolytica strain MH 12587, broth-microdilution; unit assumed. The essentials:
as §1
Regarding `CC(C)([C@H](NC(=O)c1ccc(C#Cc2ccc(CNCc3cccnc3)nc2)cc1)C(=O)NO)S(C)(=O)=O` [Compound 373], the MIC MH 12587 came to 6.3 µg/mL (≈ 11.8 µM).

Molecule `CC(C)([C@H](NC(=O)c1ccc(C#Cc2ccc(CNCc3ccccn3)cc2)cc1)C(=O)NO)S(C)(=O)=O` [C.269] returned an MIC MH 12587 of 1.6 µg/mL (≈ 2.99 µM).

`CSC(C)(C)[C@H](NC(=O)c1ccc(C#Cc2ccc(CN3CCOCC3)cc2)cc1)C(=O)NO` [Compound 238] yielded an MIC MH 12587 of 3.1 µg/mL (≈ 6.44 µM).

In the case of `CCCNCc1ccc(C#Cc2ccc(C(=O)N[C@H](C(=O)NO)C(C)C)cc2)cc1` [Compound 206], the MIC MH 12587 was found to be 6.3 µg/mL (≈ 15.5 µM).

Another assay deals with Mannheimia haemolytica MH 13065 (XB0446-6003.9, BRD field isolate). Put plainly: MIC, broth-microdilution (CLSI VET01-A4), strain MH 13065. The assay is classed as cell-based. Particulars: Mannheimia haemolytica strain MH 13065, broth-microdilution; unit assumed. The method, boiled down: as §1
The molecule `CC(C)([C@H](NC(=O)c1ccc(C#Cc2ccc(CNCc3cccnc3)nc2)cc1)C(=O)NO)S(C)(=O)=O` [Compound 373] returned an MIC MH 13065 of 3.1 µg/mL (≈ 5.79 µM).

For `CC(C)([C@H](NC(=O)c1ccc(C#Cc2ccc(CNCc3ccccn3)cc2)cc1)C(=O)NO)S(C)(=O)=O` [C.269], the MIC MH 13065 was 1.6 µg/mL (≈ 2.99 µM).

Take `CSC(C)(C)[C@H](NC(=O)c1ccc(C#Cc2ccc(CN3CCOCC3)cc2)cc1)C(=O)NO` [Compound 238]: the MIC MH 13065 turned out to be 1.6 µg/mL (≈ 3.32 µM).

For `CCCNCc1ccc(C#Cc2ccc(C(=O)N[C@H](C(=O)NO)C(C)C)cc2)cc1` [Compound 206], the MIC MH 13065 came to 3.1 µg/mL (≈ 7.61 µM).

The next assay deals with Mannheimia haemolytica MH 13093 (XB0472-6014.1, BRD field isolate). Put plainly: MIC, broth-microdilution (CLSI VET01-A4), strain MH 13093. It is filed as cell-based. Particulars: Mannheimia haemolytica strain MH 13093, broth-microdilution; unit assumed. The method, boiled down:
as §1
Consider `CC(C)([C@H](NC(=O)c1ccc(C#Cc2ccc(CNCc3cccnc3)nc2)cc1)C(=O)NO)S(C)(=O)=O` [Compound 373], for which the MIC MH 13093 was 3.1 µg/mL (≈ 5.79 µM).

`CC(C)([C@H](NC(=O)c1ccc(C#Cc2ccc(CNCc3ccccn3)cc2)cc1)C(=O)NO)S(C)(=O)=O` [C.269] had an MIC MH 13093 of 0.8 µg/mL (≈ 1.5 µM).

Turning to `CSC(C)(C)[C@H](NC(=O)c1ccc(C#Cc2ccc(CN3CCOCC3)cc2)cc1)C(=O)NO` [Compound 238], the MIC MH 13093 was 1.6 µg/mL (≈ 3.32 µM).

For `CCCNCc1ccc(C#Cc2ccc(C(=O)N[C@H](C(=O)NO)C(C)C)cc2)cc1` [Compound 206], the MIC MH 13093 came to 6.3 µg/mL (≈ 15.5 µM).

Another assay relates to Pasteurella multocida PM 6267 (P 2225 (L386), reference strain, mouse infection strain). Put plainly: MIC, broth-microdilution (CLSI VET01-A4), strain PM 6267. It is filed as cell-based. Particulars: Pasteurella multocida strain PM 6267, broth-microdilution; unit assumed. The method, boiled down:
as §1
Molecule `CC(C)([C@H](NC(=O)c1ccc(C#Cc2ccc(CNCc3cccnc3)nc2)cc1)C(=O)NO)S(C)(=O)=O` [Compound 373] showed an MIC PM 6267 of 0.4 µg/mL (≈ 0.747 µM).

`CC(C)([C@H](NC(=O)c1ccc(C#Cc2ccc(CNCc3ccccn3)cc2)cc1)C(=O)NO)S(C)(=O)=O` [C.269]: the MIC PM 6267 was not above 0.1 µg/mL.

In turn, `CSC(C)(C)[C@H](NC(=O)c1ccc(C#Cc2ccc(CN3CCOCC3)cc2)cc1)C(=O)NO` [Compound 238] yielded an MIC PM 6267 not above 0.1 µg/mL.

Molecule `CCCNCc1ccc(C#Cc2ccc(C(=O)N[C@H](C(=O)NO)C(C)C)cc2)cc1` [Compound 206] had an MIC PM 6267 not above 0.1 µg/mL.

Another assay concerns Pasteurella multocida PM 6391 (ATCC 43137, reference strain). Put plainly: MIC, broth-microdilution (CLSI VET01-A4), strain PM 6391. It is filed as cell-based. Particulars: Pasteurella multocida strain PM 6391, broth-microdilution; unit assumed. The method, boiled down:
as §1
Turning to `CC(C)([C@H](NC(=O)c1ccc(C#Cc2ccc(CNCc3cccnc3)nc2)cc1)C(=O)NO)S(C)(=O)=O` [Compound 373], the MIC PM 6391 came to 0.8 µg/mL (≈ 1.49 µM).

`CC(C)([C@H](NC(=O)c1ccc(C#Cc2ccc(CNCc3ccccn3)cc2)cc1)C(=O)NO)S(C)(=O)=O` [C.269] returned an MIC PM 6391 not above 0.1 µg/mL.

`CSC(C)(C)[C@H](NC(=O)c1ccc(C#Cc2ccc(CN3CCOCC3)cc2)cc1)C(=O)NO` [Compound 238] yielded an MIC PM 6391 not above 0.1 µg/mL.

Turning to `CCCNCc1ccc(C#Cc2ccc(C(=O)N[C@H](C(=O)NO)C(C)C)cc2)cc1` [Compound 206], the MIC PM 6391 was found to be 0.4 µg/mL (≈ 0.982 µM).

The subject of another assay is Pasteurella multocida PM 10775 (080130003051, BRD field isolate). In words: MIC, broth-microdilution (CLSI VET01-A4), strain PM 10775. The assay is classed as cell-based. Particulars: Pasteurella multocida strain PM 10775, broth-microdilution; unit assumed. The method, boiled down: as §1
Take `CC(C)([C@H](NC(=O)c1ccc(C#Cc2ccc(CNCc3cccnc3)nc2)cc1)C(=O)NO)S(C)(=O)=O` [Compound 373]: the MIC PM 10775 was not above 0.1 µg/mL.

Consider `CC(C)([C@H](NC(=O)c1ccc(C#Cc2ccc(CNCc3ccccn3)cc2)cc1)C(=O)NO)S(C)(=O)=O` [C.269], for which the MIC PM 10775 was not above 0.1 µg/mL.

`CSC(C)(C)[C@H](NC(=O)c1ccc(C#Cc2ccc(CN3CCOCC3)cc2)cc1)C(=O)NO` [Compound 238] returned an MIC PM 10775 not above 0.1 µg/mL.

`CCCNCc1ccc(C#Cc2ccc(C(=O)N[C@H](C(=O)NO)C(C)C)cc2)cc1` [Compound 206] had an MIC PM 10775 not above 0.1 µg/mL.

For the next assay, the system named is Pasteurella multocida PM 12080 (IV102277-0093, BRD field isolate). In words: MIC, broth-microdilution (CLSI VET01-A4), strain PM 12080. Particulars: Pasteurella multocida strain PM 12080, broth-microdilution; unit assumed. The assay is classed as cell-based. The method, boiled down:
as §1
In turn, `CC(C)([C@H](NC(=O)c1ccc(C#Cc2ccc(CNCc3cccnc3)nc2)cc1)C(=O)NO)S(C)(=O)=O` [Compound 373] registered an MIC PM 12080 of 0.4 µg/mL (≈ 0.747 µM).

The molecule `CC(C)([C@H](NC(=O)c1ccc(C#Cc2ccc(CNCc3ccccn3)cc2)cc1)C(=O)NO)S(C)(=O)=O` [C.269] yielded an MIC PM 12080 not above 0.1 µg/mL.

As for `CSC(C)(C)[C@H](NC(=O)c1ccc(C#Cc2ccc(CN3CCOCC3)cc2)cc1)C(=O)NO` [Compound 238], the MIC PM 12080 is not above 0.1 µg/mL.

Regarding `CCCNCc1ccc(C#Cc2ccc(C(=O)N[C@H](C(=O)NO)C(C)C)cc2)cc1` [Compound 206], the MIC PM 12080 turned out to be 0.2 µg/mL (≈ 0.491 µM).
